Where a name gives a salt, the structure may show the parent alone.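 All cell lines were grown in 96-well plates and treated with compound for 48 hours. Here, GI50 denotes the concentration required for 50% inhibition of growth.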 Active and inactive are the calls of the source. Rule as the data show it: active = GI50 up to about 1.1 µM and inactive = higher.
How the values were obtained:
Assay in all cases: NCI anticancer screen, dose series, 48 h
OVCAR-3 = tested on: OVCAR-3
HT-29 = tested on: HT-29
HCT-15 = tested on: HCT-15
OVCAR-4 = tested on: OVCAR-4
IGROV-1 = tested on: IGROV-1
SF-295 = tested on: SF-295
PC-3 = tested on: PC-3
SNB-75 = tested on: SNB-75
MDA-MB-231 = tested on: MDA-MB-231
MDA-N = tested on: MDA-N
T47D = tested on: T47D
SNB-19 = tested on: SNB-19
SW-620 = tested on: SW-620
MDA-MB-435 = tested on: MDA-MB-435
SF-539 = tested on: SF-539
EKVX = tested on: EKVX
A549 = tested on: A549
SK-MEL-2 = tested on: SK-MEL-2
Malme-3M = tested on: Malme-3M
ACHN = tested on: ACHN

| Compound | GI50 (OVCAR-3) | GI50 (HT-29) | GI50 (HCT-15) [µM] | GI50 (OVCAR-4) | GI50 (IGROV-1) | GI50 (SF-295) | GI50 (PC-3) | GI50 (SNB-75) | GI50 (MDA-MB-231) | GI50 (MDA-N) | GI50 (T47D) | GI50 (SNB-19) | GI50 (SW-620) | GI50 (MDA-MB-435) | GI50 (SF-539) | GI50 (EKVX) | GI50 (A549) | GI50 (SK-MEL-2) | GI50 (Malme-3M) | GI50 (ACHN) |
| --- | --- | --- | --- | --- | --- | --- | --- | --- | --- | --- | --- | --- | --- | --- | --- | --- | --- | --- | --- | --- |
| CCCCCCCCCCCCCC(=O)OC(/C=C/C(C)C)C(O)C(O)C(OC)C(=O)NC1CCCCN(C)C1=O (stereo not given) | 5.12 µM (inactive) | 6.3 µM (inactive) | 6 | 6.12 µM (inactive) | 0.457 µM (active) | 3.95 µM (inactive) | 7.48 µM (inactive) | 7.94 µM (inactive) | 1.86 µM (inactive) | > 10 µM (inactive) | > 10 µM (inactive) | 1.45 µM (inactive) | 1.36 µM (inactive) | 5.25 µM (inactive) | 3.62 µM (inactive) | 9.06 µM (inactive) | 0.575 µM (active) | 4.2 µM (inactive) | 2.11 µM (inactive) | 4.31 µM (inactive) |
| Cc1ccc2c(c1C)C(=O)C1(C2)Cc2ccc3c(c2C1=O)CCC3 (stereo not given) | > 100 µM (inactive) | > 100 µM (inactive) | > 100 | > 100 µM (inactive) | > 100 µM (inactive) | > 100 µM (inactive) | > 100 µM (inactive) | > 100 µM (inactive) | > 100 µM (inactive) | > 100 µM (inactive) | > 100 µM (inactive) | > 100 µM (inactive) | > 100 µM (inactive) | > 100 µM (inactive) | 29.9 µM (inactive) | > 100 µM (inactive) | > 100 µM (inactive) | > 100 µM (inactive) | > 100 µM (inactive) | > 100 µM (inactive) |
| COc1c2ccoc2cc2oc(=O)ccc12 [BERGAPTEN] | > 100 µM (inactive) | > 100 µM (inactive) | > 100 | > 100 µM (inactive) | > 100 µM (inactive) | > 100 µM (inactive) | > 100 µM (inactive) | 89.1 µM (inactive) | > 100 µM (inactive) | > 100 µM (inactive) | > 100 µM (inactive) | > 100 µM (inactive) | > 100 µM (inactive) | > 100 µM (inactive) | > 100 µM (inactive) | 18.7 µM (inactive) | > 100 µM (inactive) | > 100 µM (inactive) | > 100 µM (inactive) | > 100 µM (inactive) |
| NCCSSCCN [CYSTAMINE HYDROCHLORIDE] | > 100 µM (inactive) | > 100 µM (inactive) | > 100 | > 100 µM (inactive) | > 100 µM (inactive) | > 100 µM (inactive) | > 100 µM (inactive) | > 100 µM (inactive) | > 100 µM (inactive) | > 100 µM (inactive) | > 100 µM (inactive) | > 100 µM (inactive) | > 100 µM (inactive) | > 100 µM (inactive) | > 100 µM (inactive) | > 100 µM (inactive) | > 100 µM (inactive) | > 100 µM (inactive) | > 100 µM (inactive) | > 100 µM (inactive) |

Reference: ChEMBL document CHEMBL1201862, “PubChem BioAssay data set” (2004)
